# Measurements taken from patent US20240016150A1, “MIXTURES CONTAINING METARYLPICOXAMID” (BASF SE, priority 2020, published 2024).
# Columns and labels:
# Phakopsora pachyrhizi = assay: Greenhouse: curative control of soybean rust on soybeans; assay type: in vivo; conditions: single active, sprayed to run-off, soybean seedlings, assessed after 14 days
# Method: EXAMPLE 1—Curative control of soybean rust on soybeans caused by Phakopsora pachyrhizi
# Leaves of potted soybean seedlings were inoculated with spores of Phakopsora pachyrhizi. To ensure the success of the artificial inoculation, the plants were transferred to a humid chamber with a relative humidity of about 95% and 20 to 24 ? C for 24 h. The next day the plants were cultivated for 2 days in a greenhouse chamber at 23-27 °C and a relative humidity between 60 and 80%. Then the plants were sprayed to run-off with the previously described spray solution, containing the concentration of active ingredient or their mixture as described below. The plants were allowed to air-dry. Then the trial plants were cultivated for 14 days in a greenhouse chamber at 23-27 °C and a relative humidity between 60 and 80%. The extent of fungal attack on the leaves was visually assessed as % diseased leaf area.
# The disease ratings (or diseased leaf area) were converted into efficacies.
# An efficacy of 0 means that the infection level of the treated plants corresponds to that of the untreated control plants; an efficacy of 100 means that the treated plants were not infected.
# The expected efficacies of active compound mixtures were determined using Colby's formula [R.S. Colby, “Calculating synergistic and antagonistic responses of herbicide combinations”, Weeds 15, 20-22 (1967)] and compared with the observed efficacies.
# Alternaria solani = assay: Microtest: activity against early blight; assay type: cell-based; conditions: single active, MTP, 405 nm, 7 days after inoculation
# Method: The active compounds were formulated separately as a stock solution having a concentration of 10000 ppm in dimethyl sulfoxide. The stock solutions were mixed according to the ratio, pipetted onto a micro titer plate (MTP) and diluted with water to the stated concentrations. Example 2—Activity against early blight caused by Alternaria solani A spore suspension of Alternaria solani in an aqueous biomalt or yeast-bactopeptone-glycerine or DOB solution was then added. The plates were placed in a water vapor-saturated chamber at a temperature of 18° C. Using an absorption photometer, the MTPs were measured at 405 nm 7 days after the inoculation. The measured parameters were compared to the growth of the active compound-free control variant (100%) and the fungus-free blank value to determine the relative growth in % of the pathogens in the respective active compounds. These percentages were converted into efficacies. An efficacy of 0 means that the growth level of the pathogens corresponds to that of the untreated control; an efficacy of 100 means that the pathogens were not growing. The expected efficacies of active compound mixtures were determined using Colby's formula [R.S. Colby, “Calculating synergistic and antagonistic responses of herbicide combinations”, Weeds 15, 20-22 (1967)] and compared with the observed efficacies.
# Septoria tritici = assay: Microtest: activity against leaf blotch on wheat; assay type: cell-based; conditions: single active, MTP, 405 nm, 7 days after inoculation
# Method: The active compounds were formulated separately as a stock solution having a concentration of 10000 ppm in dimethyl sulfoxide. The stock solutions were mixed according to the ratio, pipetted onto a micro titer plate (MTP) and diluted with water to the stated concentrations. EXAMPLE 1—Activity against leaf blotch on wheat caused by Septoria tritici A spore suspension of Septoria tritici in an aqueous biomalt or yeast-bactopeptone-glycerine or DOB solution was then added. The plates were placed in a water vapor-saturated chamber at a temperature of 18° C. Using an absorption photometer, the MTPs were measured at 405 nm 7 days after the inoculation. The measured parameters were compared to the growth of the active compound-free control variant (100%) and the fungus-free blank value to determine the relative growth in % of the pathogens in the respective active compounds. These percentages were converted into efficacies. An efficacy of 0 means that the growth level of the pathogens corresponds to that of the untreated control; an efficacy of 100 means that the pathogens were not growing. The expected efficacies of active compound mixtures were determined using Colby's formula [R.S. Colby, “Calculating synergistic and antagonistic responses of herbicide combinations”, Weeds 15, 20-22 (1967)] and compared with the observed efficacies.
SMILES,Observed efficacy (Phakopsora pachyrhizi; 1 ppm),Observed efficacy (Alternaria solani; 1 ppm),Observed efficacy (Septoria tritici; 4 ppm),Observed efficacy (Phakopsora pachyrhizi; 0.25 ppm),Observed efficacy (Alternaria solani; 0.016 ppm),Observed efficacy (Septoria tritici; 0.063 ppm),Observed efficacy (Septoria tritici; 0.25 ppm)
"CCC(=O)Oc1c(OC)ccnc1C(=O)N[C@@H](C)C(=O)O[C@@H](C)[C@@H](C)c1ccccc1C [Compound I, [(1S,2S)-1-methyl-2-(o-tolyl)propyl] (2S)-2-[(4-methoxy-3-propanoyloxy-pyridine-2-carbonyl)amino]propanoate]",18,0,56,–,–,–,–
"CON(Cc1ccc(-c2noc(C(F)(F)F)n2)cc1)C(=O)C1CC1 [Compound II-1, N-methoxy-N-[[4-[5-(trifluoromethyl)-1,2 ,4-oxadiazol-3-yl]phenyl]methyl]cyclopropanecarboxamide]",14,–,–,0,0,–,–
"O=C(NC1CCC1c1ccc(Cl)cc1Cl)c1cccnc1C(F)(F)F (centres unmarked) [Compound II-2, N-[2-(2,4-dichlorophenyl)cyclobutyl]-2-(trifluoromethyl)pyridine-3-carboxamide]",–,–,–,–,–,12,49
